Reference: US20260183301A1, “TREATING DISEASES AND DISORDERS WITH IRAK4-MODIFYING COMPOUNDS” (Curis, Inc., priority 2022, published 2026)
Entries after “also recorded” stand apart in the source; their conditions may differ.

Legend:
[1] = Oral pharmacokinetics in humans; type: in vivo, human
Method: (§1) Seven dosing cohorts included 50 and 100 mg QD, and 50, 100, 200, 300, or 400 mg BID of daily continuous oral monotherapy in 21-Day cycles. Objective included safety and tolerance (primary), pk/pd and early efficacy (secondary), and biomarker correlations (exploratory). 31 patients with resistant or refractory, advanced NHL have been enrolled.

[2] = test system: in vivo models of non-Hodgkin's lymphoma; experiment: In vivo models of non-Hodgkin's lymphoma: tumor growth; conditions: FIGS. 22A-C, each model
[3] = Phase I dose escalation trial in NHL: safety and tolerance (adverse effects, DLT)
Method: as §1

[4] = 200 mg BID, N = 5, [E] not defined
[5] = 300 mg BID, N = 6, [E] not defined
[6] = 400 mg BID, N = 8, [E] not defined

Cc1cc(-c2nc(C(=O)Nc3cc4oc(N5CCOCC5)nc4nc3N3CC[C@@H](O)C3)co2)ccn1 [Compound 1, emavusertib]
accumulation ([1]; multiple daily single dose administration): Minimal to no accumulation
absorption ([1]; oral administration): rapidly absorbed
exposure versus dose ([1]; oral administration): dose-proportional increase in exposure
time of maximum plasma concentrations ([1]; oral administration, post dose): 0.5 to 8 h
accumulation ([1]; steady state, multiple twice daily dose administration): Moderate accumulation
tumor growth [2]: reduced tumor growth
Back pain, All Grades ([3]; 200 mg BID (n = 5)): 20%
Back pain, Grade 3 or 4 ([3]; 200 mg BID (n = 5)): 0%
Constipation, All Grades ([3]; 200 mg BID (n = 5)): 20%
Constipation, Grade 3 or 4 ([3]; 200 mg BID (n = 5)): 0%
Cough, All Grades ([3]; 200 mg BID (n = 5)): 40%
Cough, Grade 3 or 4 ([3]; 200 mg BID (n = 5)): 0%
Dehydration, All Grades ([3]; 200 mg BID (n = 5)): 20%
Dehydration, Grade 3 or 4 ([3]; 200 mg BID (n = 5)): 0%
Diarrhea, All Grades ([3]; 200 mg BID (n = 5)): 20%
Diarrhea, Grade 3 or 4 ([3]; 200 mg BID (n = 5)): 0%
Dizziness, All Grades ([3]; 200 mg BID (n = 5)): 0%
Dizziness, Grade 3 or 4 ([3]; 200 mg BID (n = 5)): 0%
Dyspnoe, All Grades ([3]; 200 mg BID (n = 5)): 20%
Dyspnoe, Grade 3 or 4 ([3]; 200 mg BID (n = 5)): 0%
Fatigue, All Grades ([3]; 200 mg BID (n = 5)): 40%
Fatigue, Grade 3 or 4 ([3]; 200 mg BID (n = 5)): 0%
Headache, All Grades ([3]; 200 mg BID (n = 5)): 20%
Headache, Grade 3 or 4 ([3]; 200 mg BID (n = 5)): 0%
Insomnia, All Grades ([3]; 200 mg BID (n = 5)): 20%
Insomnia, Grade 3 or 4 ([3]; 200 mg BID (n = 5)): 0%
Muscle weakness, All Grades ([3]; 200 mg BID (n = 5)): 20%
Muscle weakness, Grade 3 or 4 ([3]; 200 mg BID (n = 5)): 20%
Myalgia, All Grades ([3]; 200 mg BID (n = 5)): 40%
Myalgia, Grade 3 or 4 ([3]; 200 mg BID (n = 5)): 0%
Nausea, All Grades ([3]; 200 mg BID (n = 5)): 20%
Nausea, Grade 3 or 4 ([3]; 200 mg BID (n = 5)): 0%
Oedema, All Grades ([3]; 200 mg BID (n = 5)): 25%
Oedema, Grade 3 or 4 ([3]; 200 mg BID (n = 5)): 0%
Peripheral sensory neuropathy, All Grades ([3]; 200 mg BID (n = 5)): 0%
Peripheral sensory neuropathy, Grade 3 or 4 ([3]; 200 mg BID (n = 5)): 0%
Rhabdomyolysis, All Grades ([3]; 200 mg BID (n = 5)): 0%
Rhabdomyolysis, Grade 3 or 4 ([3]; 200 mg BID (n = 5)): 0%
Upper respiratory infection, All Grades ([3]; 200 mg BID (n = 5)): 40%
Upper respiratory infection, Grade 3 or 4 ([3]; 200 mg BID (n = 5)): 20%
Vomiting, All Grades ([3]; 200 mg BID (n = 5)): 20%
Vomiting, Grade 3 or 4 ([3]; 200 mg BID (n = 5)): 0%
Anemia, All Grades ([3]; 200 mg BID, N = 5): 1 (20.0) n (%)
Anemia, Grade 3 or Higher ([3]; 200 mg BID, N = 5): 0 n (%)
Neutropenia, All Grades ([3]; 200 mg BID, N = 5): 2 (40.0) n (%)
Neutropenia, Grade 3 or Higher ([3]; 200 mg BID, N = 5): 2 (40.0) n (%)
Thrombocytopenia, All Grades ([3]; 200 mg BID, N = 5): 0 n (%)
Thrombocytopenia, Grade 3 or Higher ([3]; 200 mg BID, N = 5): 0 n (%)
Anemia, All Grades [E] [3, 4]: [1]
Neutropenia, All Grades [E] [3, 4]: [3]
Neutropenia, Grade 3 or Higher [E] [3, 4]: [2]
Back pain, All Grades ([3]; 300 mg BID (n = 6)): 0%
Back pain, Grade 3 or 4 ([3]; 300 mg BID (n = 6)): 0%
Constipation, All Grades ([3]; 300 mg BID (n = 6)): 0%
Constipation, Grade 3 or 4 ([3]; 300 mg BID (n = 6)): 0%
Cough, All Grades ([3]; 300 mg BID (n = 6)): 0%
Cough, Grade 3 or 4 ([3]; 300 mg BID (n = 6)): 0%
Dehydration, All Grades ([3]; 300 mg BID (n = 6)): 0%
Dehydration, Grade 3 or 4 ([3]; 300 mg BID (n = 6)): 0%
Diarrhea, All Grades ([3]; 300 mg BID (n = 6)): 40%
Diarrhea, Grade 3 or 4 ([3]; 300 mg BID (n = 6)): 0%
Dizziness, All Grades ([3]; 300 mg BID (n = 6)): 0%
Dizziness, Grade 3 or 4 ([3]; 300 mg BID (n = 6)): 0%
Dyspnoe, All Grades ([3]; 300 mg BID (n = 6)): 0%
Dyspnoe, Grade 3 or 4 ([3]; 300 mg BID (n = 6)): 0%
Fatigue, All Grades ([3]; 300 mg BID (n = 6)): 0%
Fatigue, Grade 3 or 4 ([3]; 300 mg BID (n = 6)): 0%
Headache, All Grades ([3]; 300 mg BID (n = 6)): 0%
Headache, Grade 3 or 4 ([3]; 300 mg BID (n = 6)): 0%
Insomnia, All Grades ([3]; 300 mg BID (n = 6)): 0%
Insomnia, Grade 3 or 4 ([3]; 300 mg BID (n = 6)): 0%
Muscle weakness, All Grades ([3]; 300 mg BID (n = 6)): 0%
Muscle weakness, Grade 3 or 4 ([3]; 300 mg BID (n = 6)): 0%
Myalgia, All Grades ([3]; 300 mg BID (n = 6)): 0%
Myalgia, Grade 3 or 4 ([3]; 300 mg BID (n = 6)): 0%
Nausea, All Grades ([3]; 300 mg BID (n = 6)): 17%
Nausea, Grade 3 or 4 ([3]; 300 mg BID (n = 6)): 0%
Oedema, All Grades ([3]; 300 mg BID (n = 6)): 0%
Oedema, Grade 3 or 4 ([3]; 300 mg BID (n = 6)): 0%
Peripheral sensory neuropathy, All Grades ([3]; 300 mg BID (n = 6)): 0%
Peripheral sensory neuropathy, Grade 3 or 4 ([3]; 300 mg BID (n = 6)): 0%
Rhabdomyolysis, All Grades ([3]; 300 mg BID (n = 6)): 0%
Rhabdomyolysis, Grade 3 or 4 ([3]; 300 mg BID (n = 6)): 0%
Upper respiratory infection, All Grades ([3]; 300 mg BID (n = 6)): 0%
Upper respiratory infection, Grade 3 or 4 ([3]; 300 mg BID (n = 6)): 0%
Vomiting, All Grades ([3]; 300 mg BID (n = 6)): 20%
Vomiting, Grade 3 or 4 ([3]; 300 mg BID (n = 6)): 20%
Anemia, All Grades ([3]; 300 mg BID, N = 6): 2 (33.3) n (%)
Anemia, Grade 3 or Higher ([3]; 300 mg BID, N = 6): 0 n (%)
Neutropenia, All Grades ([3]; 300 mg BID, N = 6): 1 (16.7) n (%)
Neutropenia, Grade 3 or Higher ([3]; 300 mg BID, N = 6): 1 (16.7) n (%)
Thrombocytopenia, All Grades ([3]; 300 mg BID, N = 6): 0 n (%)
Thrombocytopenia, Grade 3 or Higher ([3]; 300 mg BID, N = 6): 0 n (%)
Anemia, All Grades [E] [3, 5]: [3]
Neutropenia, All Grades [E] [3, 5]: [5]
Neutropenia, Grade 3 or Higher [E] [3, 5]: [1]
DLT ([3]; 300 mg BID, six patients): without DLT
Back pain, All Grades ([3]; 400 mg BID (n = 8)): 12.5%
Back pain, Grade 3 or 4 ([3]; 400 mg BID (n = 8)): 0%
Constipation, All Grades ([3]; 400 mg BID (n = 8)): 20%
Constipation, Grade 3 or 4 ([3]; 400 mg BID (n = 8)): 0%
Cough, All Grades ([3]; 400 mg BID (n = 8)): 0%
Cough, Grade 3 or 4 ([3]; 400 mg BID (n = 8)): 0%
Dehydration, All Grades ([3]; 400 mg BID (n = 8)): 12.5%
Dehydration, Grade 3 or 4 ([3]; 400 mg BID (n = 8)): 0%
Diarrhea, All Grades ([3]; 400 mg BID (n = 8)): 25%
Diarrhea, Grade 3 or 4 ([3]; 400 mg BID (n = 8)): 0%
Dizziness, All Grades ([3]; 400 mg BID (n = 8)): 25%
Dizziness, Grade 3 or 4 ([3]; 400 mg BID (n = 8)): 0%
Dyspnoe, All Grades ([3]; 400 mg BID (n = 8)): 12.5%
Dyspnoe, Grade 3 or 4 ([3]; 400 mg BID (n = 8)): 12.5%
Fatigue, All Grades ([3]; 400 mg BID (n = 8)): 50%
Fatigue, Grade 3 or 4 ([3]; 400 mg BID (n = 8)): 0%
Headache, All Grades ([3]; 400 mg BID (n = 8)): 12.5%
Headache, Grade 3 or 4 ([3]; 400 mg BID (n = 8)): 0%
Insomnia, All Grades ([3]; 400 mg BID (n = 8)): 12.5%
Insomnia, Grade 3 or 4 ([3]; 400 mg BID (n = 8)): 0%
Muscle weakness, All Grades ([3]; 400 mg BID (n = 8)): 12.5%
Muscle weakness, Grade 3 or 4 ([3]; 400 mg BID (n = 8)): 0%
Myalgia, All Grades ([3]; 400 mg BID (n = 8)): 37.5%
Myalgia, Grade 3 or 4 ([3]; 400 mg BID (n = 8)): 0%
Nausea, All Grades ([3]; 400 mg BID (n = 8)): 50%
Nausea, Grade 3 or 4 ([3]; 400 mg BID (n = 8)): 0%
Oedema, All Grades ([3]; 400 mg BID (n = 8)): 0%
Oedema, Grade 3 or 4 ([3]; 400 mg BID (n = 8)): 0%
Peripheral sensory neuropathy, All Grades ([3]; 400 mg BID (n = 8)): 25%
Peripheral sensory neuropathy, Grade 3 or 4 ([3]; 400 mg BID (n = 8)): 0%
Rhabdomyolysis, All Grades ([3]; 400 mg BID (n = 8)): 25%
Rhabdomyolysis, Grade 3 or 4 ([3]; 400 mg BID (n = 8)): 25%
Upper respiratory infection, All Grades ([3]; 400 mg BID (n = 8)): 12.5%
Upper respiratory infection, Grade 3 or 4 ([3]; 400 mg BID (n = 8)): 0%
Vomiting, All Grades ([3]; 400 mg BID (n = 8)): 25%
Vomiting, Grade 3 or 4 ([3]; 400 mg BID (n = 8)): 0%
Anemia, All Grades ([3]; 400 mg BID, N = 8): 1 (12.5) n (%)
Anemia, Grade 3 or Higher ([3]; 400 mg BID, N = 8): 1 (12.5) n (%)
Neutropenia, All Grades ([3]; 400 mg BID, N = 8): 2 (25.0) n (%)
Neutropenia, Grade 3 or Higher ([3]; 400 mg BID, N = 8): 0 n (%)
Thrombocytopenia, All Grades ([3]; 400 mg BID, N = 8): 1 (12.5) n (%)
Thrombocytopenia, Grade 3 or Higher ([3]; 400 mg BID, N = 8): 1 (12.5) n (%)
Anemia, All Grades [E] [3, 6]: [1]
Anemia, Grade 3 or Higher [E] [3, 6]: [1]
Neutropenia, All Grades [E] [3, 6]: [3]
Thrombocytopenia, All Grades [E] [3, 6]: [2]
Thrombocytopenia, Grade 3 or Higher [E] [3, 6]: [2]
DLT-evaluable patients with Grade 3 rhabdomyolysis (DLTs) ([3]; 400 mg BID, reversible after treatment interruption): 2 of 5
Grade 3 combined episodes of neutropenia, anemia, thrombocytopenia ([3]; 18 patients at 200 to 400 mg BID): 4
toxic deaths ([3]; Phase I NHL): No toxic deaths
overall safety and tolerance ([3]; Phase I NHL, 50 mg QD to 400 mg BID): well tolerated; also recorded: good safety and tolerance
creatine phosphokinase (CPK) elevation, grade ([3]; WM patient, 200 mg po BID, asymptomatic, resolved with exercise moderation): grade 2
tolerability ([3]; WM patient, continuous oral treatment for close to 18 months): well tolerated
tolerability ([3]; WM patient, first dose level 50 mg): without adverse events
safety and tolerability profile ([3]; at RP2D (300 mg BID)): acceptable safety and tolerability profile
grade of most non-hematologic TEAEs ([3]; diarrhea, vomiting, fatigue, dyspnea, myalgia): Grade 1 or 2
